In patent publication US10160726B2, “Quinolone derivatives as antibacterials” (priority 2014, dated 2018):
Converted amounts (≈) assume the structure as drawn. Where a name gives a salt, the structure may show the parent alone. Read-outs that look alike come from different tables or passages of the source.

Assays:
[1] = test system: P. aeruginosa NB52019 (wild-type PAO1); test: MIC, broth microdilution (CLSI); format: cell-based; conditions: Pseudomonas aeruginosa, read-out: Antibacterial activity (MIC) NB52019
[2] = test system: E. coli NB27177 (efflux deficient CGSC 11430, ΔtolC732::kan); test: microbe, parasite or virus in culture; format: cell-based; conditions: Escherichia coli, 20 h, read-out: Antibacterial activity (MIC) NB27177
[3] = target: E. coli DNA topoisomerase IV (Topo IV, ParC-E) (Escherichia coli, UniProt P0AFI2); test: Decatenation assay of E. coli Topo IV; format: biochemical
E. coli DNA topoisomerase IV (Topo IV, ParC-E), sequence (P0AFI2 whole entry): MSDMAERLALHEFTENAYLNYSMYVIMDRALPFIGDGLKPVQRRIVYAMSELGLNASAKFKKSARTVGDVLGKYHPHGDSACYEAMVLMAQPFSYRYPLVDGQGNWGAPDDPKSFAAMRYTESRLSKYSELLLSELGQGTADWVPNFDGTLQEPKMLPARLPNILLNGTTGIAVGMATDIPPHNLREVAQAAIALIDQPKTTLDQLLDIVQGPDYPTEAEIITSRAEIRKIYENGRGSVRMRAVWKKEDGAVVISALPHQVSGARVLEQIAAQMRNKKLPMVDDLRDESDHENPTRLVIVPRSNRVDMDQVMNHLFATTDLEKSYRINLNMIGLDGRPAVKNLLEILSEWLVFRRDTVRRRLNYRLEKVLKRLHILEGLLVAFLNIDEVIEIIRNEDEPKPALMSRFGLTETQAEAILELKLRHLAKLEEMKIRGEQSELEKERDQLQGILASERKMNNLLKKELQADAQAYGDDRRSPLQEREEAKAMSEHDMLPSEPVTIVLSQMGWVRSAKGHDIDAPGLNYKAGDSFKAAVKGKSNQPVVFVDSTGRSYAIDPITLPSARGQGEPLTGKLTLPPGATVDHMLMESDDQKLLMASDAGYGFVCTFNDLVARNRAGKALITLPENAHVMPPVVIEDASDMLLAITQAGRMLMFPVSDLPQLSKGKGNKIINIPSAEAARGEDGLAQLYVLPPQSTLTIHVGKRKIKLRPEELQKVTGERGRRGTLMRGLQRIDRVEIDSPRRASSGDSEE
E. coli DNA topoisomerase IV (Topo IV, ParC-E), sequence (P20083 whole entry, further chain): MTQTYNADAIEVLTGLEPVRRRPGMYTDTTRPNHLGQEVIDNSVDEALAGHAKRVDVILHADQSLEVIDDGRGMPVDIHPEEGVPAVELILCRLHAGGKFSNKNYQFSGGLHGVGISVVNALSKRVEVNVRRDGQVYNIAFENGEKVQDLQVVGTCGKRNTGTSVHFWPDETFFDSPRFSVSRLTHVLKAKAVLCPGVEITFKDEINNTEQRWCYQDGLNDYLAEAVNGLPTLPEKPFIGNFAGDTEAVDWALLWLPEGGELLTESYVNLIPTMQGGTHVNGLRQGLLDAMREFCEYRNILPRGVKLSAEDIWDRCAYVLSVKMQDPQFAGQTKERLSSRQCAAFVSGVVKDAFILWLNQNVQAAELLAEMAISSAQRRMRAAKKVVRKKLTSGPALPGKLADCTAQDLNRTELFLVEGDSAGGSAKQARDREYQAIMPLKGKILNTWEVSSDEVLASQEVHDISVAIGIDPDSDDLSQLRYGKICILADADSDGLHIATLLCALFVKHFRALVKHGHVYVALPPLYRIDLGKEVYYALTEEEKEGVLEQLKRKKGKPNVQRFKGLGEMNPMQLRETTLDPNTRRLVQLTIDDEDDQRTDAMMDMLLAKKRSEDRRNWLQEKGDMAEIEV
Method: Method 2: Decatenation Assay of E. Coli Topo IV
Enzymatic activity of the E. coli DNA topoisomerase IV (Topo IV) reconstituted from its purified subunits was monitored by the decatenation of kinetoplast DNA into minicircles (kDNA, TopoGEN, TG2013-3). To form the functional Topo IV C2E2 heterotetrameric enzyme, equal molar concentrations of the ParC and ParE subunits were combined at high protein concentration (500 nM) and incubated on ice for 1 hour prior to assay start in reaction buffer without ATP or the kDNA. […] The reaction was carried out at 37° C. for 2 hours and terminated by the addition of 2.5 μl of 10× stop solution (0.9% SDS, 50% glycerol, 0.05% bromophenol blue). […] Gels were stained with ethidium bromide (0.5 μg/ml) for 30 minutes and distained in water for 20 minutes. All gels were analyzed using the BIO-RAD ChemiDoc™ XRS^+ with Image Lab 3.0 software. The 50% inhibitor concentration (IC50) was determined as being the compound concentration at which the presence of the kDNA minicircles in the gel was reduced by 50% from the DMSO drug free control (Microsoft Excel 2010 IDBS XLfit, Graph Pad Prism 6).

[4] = test system: S. aureus NB01006-AVR005 (gyrA S84L, grlA S80F, grlB E471K); test: microbe, parasite or virus in culture; format: cell-based; conditions: Staphylococcus aureus, 20 h, read-out: Antibacterial activity (MIC) NB01006-AVR005
[5] = test system: P. aeruginosa NB52023-CDK0006 (gyrA T83I, parC S87L); test: microbe, parasite or virus in culture; format: cell-based; conditions: Pseudomonas aeruginosa, 20 h, read-out: Antibacterial activity (MIC) NB52023-CDK0006
[6] = test system: P. aeruginosa NB52023 (efflux deficient K1542, ΔmexX ΔmexB); test: microbe, parasite or virus in culture; format: cell-based; conditions: Pseudomonas aeruginosa, 20 h, read-out: Antibacterial activity (MIC) NB52023
[7] = test system: E. coli ATCC 25922 (NB27001); test: MIC, broth microdilution (CLSI); format: cell-based; conditions: Escherichia coli, ATCC25922; E. coli ATCC 25922; 35° C., 20 hours; read-out: Antibacterial activity (MIC) NB27001
[8] = test system: S. aureus ATCC 29213 (NB01001); test: MIC, broth microdilution (CLSI); format: cell-based; conditions: Staphylococcus aureus, ATCC29213; S. aureus ATCC 29213; 35° C., 20 hours; read-out: Antibacterial activity (MIC) NB01001
[9] = target: E. coli DNA gyrase (GyrA-B) (Escherichia coli, UniProt P0AES4); test: Supercoiling assay of E. coli gyrase; format: biochemical
E. coli DNA gyrase (GyrA-B), sequence (P0AES4 whole entry): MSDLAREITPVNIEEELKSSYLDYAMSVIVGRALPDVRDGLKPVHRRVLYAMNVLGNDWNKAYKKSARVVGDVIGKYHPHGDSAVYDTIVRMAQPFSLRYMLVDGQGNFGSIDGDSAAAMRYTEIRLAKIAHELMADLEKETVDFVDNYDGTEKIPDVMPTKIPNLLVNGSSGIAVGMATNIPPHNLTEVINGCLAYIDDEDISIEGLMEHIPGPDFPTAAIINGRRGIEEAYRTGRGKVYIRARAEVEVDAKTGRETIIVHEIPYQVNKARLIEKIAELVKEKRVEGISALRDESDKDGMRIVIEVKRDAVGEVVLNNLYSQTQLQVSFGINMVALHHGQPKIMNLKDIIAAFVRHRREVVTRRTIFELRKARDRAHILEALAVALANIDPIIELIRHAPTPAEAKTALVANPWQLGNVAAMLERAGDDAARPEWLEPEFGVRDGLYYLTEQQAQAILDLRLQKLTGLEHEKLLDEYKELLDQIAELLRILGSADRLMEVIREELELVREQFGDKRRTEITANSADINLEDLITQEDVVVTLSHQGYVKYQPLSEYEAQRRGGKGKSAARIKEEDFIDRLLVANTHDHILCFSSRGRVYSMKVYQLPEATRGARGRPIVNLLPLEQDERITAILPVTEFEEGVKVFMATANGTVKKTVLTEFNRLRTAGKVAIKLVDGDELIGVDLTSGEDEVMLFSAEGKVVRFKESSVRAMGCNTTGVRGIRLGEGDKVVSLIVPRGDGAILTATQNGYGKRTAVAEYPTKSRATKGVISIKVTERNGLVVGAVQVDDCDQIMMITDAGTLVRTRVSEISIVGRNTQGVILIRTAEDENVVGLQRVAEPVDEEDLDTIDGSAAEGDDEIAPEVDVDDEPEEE
Method: Method 1: Supercoiling Assay of E. Coli Gyrase
Enzymatic activity of E. coli DNA gyrase reconstituted from its purified subunits was assessed by monitoring the introduction of supercoils into the relaxed plasmid pHOT-1 (TopoGEN, TG2035-3). To form the functional gyrase A2B2 heterotetrameric enzyme, equal molar concentrations of the GyrA and GyrB subunits were combined at high protein concentration (500 nM) and incubated on ice for 1 hour prior to assay start in reaction buffer without ATP or the pHOT-1 plasmid. The reaction mixture (25 μl) contained 10 nM enzyme, 10 ng/μl pHOT-1, 1 mM ATP, 35 mM Tris-HCl pH 7.5, 24 mM KCl, 4 mM MgCl2, 2 mM DTT, 1.8 mM spermidine, 6.5% glycerol, and 100 μg/ml bovine serum albumin. The reaction was carried out at 37° C. for 90 minutes and terminated by the addition of 2.5 μl of 10× stop solution (0.9% SDS, 50% glycerol, 0.05% bromophenol blue). […] Gels were stained with ethidium bromide (0.5 μg/ml) for 30 minutes and destained in water for 20 minutes. All gels were analyzed using the BIO-RAD ChemiDocTm XRS+ with Image Lab 3.0 software. The 50% inhibition concentration (IC50) was determined as being the compound concentration at which the supercoiled band was reduced by 50% from the DMSO drug free control (Microsoft Excel 2010 IDBS XLfit, GraftPad Prism 6).

[10] = P. aeruginosa wild-type PAO1, 35° C., 20 hours
[11] = decatenation activity of E. coli topoIV (ParC-E), read-out: ParC-E IC50 (Enzyme)
[12] = supercoiling activity of E. coli gyrase (GyrA-B), read-out: GyrA-B IC50 (Enzyme)

Row | Compound | MIC [1, 10] [µg/mL] | MIC [2] [µg/mL] | IC50 [3] [µM] | MIC [4] [µg/mL] | MIC [5] [µg/mL] | MIC [6] [µg/mL] | MIC [7] [µg/mL] | MIC [8] [µg/mL] | IC50 [9] [µM] | MIC ([1]; PAO1, 20 h) [µg/mL] | IC50 [3, 11] [µM] | IC50 [9, 12] [µM]
1 | Cc1c(N2CC[C@@H]([C@H](C)N)C2)c(F)cc2ccc(=O)n(C3CC3)c12.Cl [Example 9.1, 7-((R)-3-((S)-1-aminoethyl)pyrrolidin-1-yl)-1-cyclopropyl-6-fluoro-8-methylquinolin-2(1H)-one hydrochloride salt] | 16 | < 0.03 | 9.91 | 0.06 | 8 | 4 | 1 | 0.06 | 1.3 | – | – | –
2 | Cc1c(N2CCNCC2)c(F)cc2ccc(=O)n(C3CC3)c12 [Example 9.3, 1-Cyclopropyl-6-fluoro-8-methyl-7-(piperazin-1-yl)quinolin-2(1H)-one] | 32 (≈ 106 µM) | 0.25 (≈ 0.83 µM) | > 100 | 16 (≈ 53.1 µM) | 16 (≈ 53.1 µM) | 16 (≈ 53.1 µM) | 4 (≈ 13.3 µM) | 16 (≈ 53.1 µM) | 11.9 | – | – | –
3 | Cc1c(-c2ccc(N)nc2)c(F)cc2ccc(=O)n(C3CC3)c12 [Example 10, 7-(6-Aminopyridin-3-yl)-1-cyclopropyl-6-fluoro-8-methylquinolin-2(1H)-one] | – | < 0.03 | – | 0.25 (≈ 0.808 µM) | 8 (≈ 25.9 µM) | 4 (≈ 12.9 µM) | 4 (≈ 12.9 µM) | 0.25 (≈ 0.808 µM) | – | > 32 | 1.93 | 1.2
4 | C#Cc1cc(=O)n(C2CC2)c2c(C)c(N3CC[C@@H]([C@H](C)N)C3)c(F)cc12 [Example 25, 7-((R)-3-((S)-1-aminoethyl)pyrrolidin-1-yl)-1-cyclopropyl-4-ethynyl-6-fluoro-8-methylquinolin-2(1H)-one] | – | 0.06 (≈ 0.17 µM) | – | < 0.03 | 4 (≈ 11.3 µM) | 2 (≈ 5.66 µM) | 4 (≈ 11.3 µM) | 0.06 (≈ 0.17 µM) | – | 8 (≈ 22.6 µM) | 6.46 | 1.03
5 | Cc1c(N2CC[C@@H]([C@H](C)N)C2)c(F)cc2c(C#N)cc(=O)n(C3CC3)c12 [Example 27, 7-((R)-3-((S)-1-aminoethyl)pyrrolidin-1-yl)-1-cyclopropyl-6-fluoro-8-methyl-2-oxo-1,2-dihydroquinoline-4-carbonitrile] | – | < 0.03 | – | < 0.03 | 2 (≈ 5.64 µM) | 1 (≈ 2.82 µM) | 1 (≈ 2.82 µM) | < 0.03 | – | 4 (≈ 11.3 µM) | 0.59 | 0.13
6 | Cc1c(N2CC[C@H](N)C2)c(F)cc2c(C#N)cc(=O)n(C3CC3)c12 [Example 30, (S)-7-(3-aminopyrrolidin-1-yl)-1-cyclopropyl-6-fluoro-8-methyl-2-oxo-1,2-dihydroquinoline-4-carbonitrile] | – | < 0.03 | – | 0.5 (≈ 1.53 µM) | 4 (≈ 12.3 µM) | 1 (≈ 3.06 µM) | 1 (≈ 3.06 µM) | 0.5 (≈ 1.53 µM) | – | 8 (≈ 24.5 µM) | 14.6 | 0.98
7 | Cc1c(N2CC[C@@H]([C@H](C)N)C2)c(F)cc2c(C(N)=O)cc(=O)n(C3CC3)c12 [Example 34, 7-((R)-3-((S)-1-aminoethyl)pyrrolidin-1-yl)-1-cyclopropyl-6-fluoro-8-methyl-2-oxo-1,2-dihydroquinoline-4-carboxamide] | – | 2 (≈ 5.37 µM) | – | 4 (≈ 10.7 µM) | 16 (≈ 43 µM) | 16 (≈ 43 µM) | 32 (≈ 85.9 µM) | 4 (≈ 10.7 µM) | – | > 32 | 5.14 | 0.44
8 | Cc1c(N2CC[C@@H]([C@H](C)N)C2)c(F)cc2c(-c3n[nH]c(=O)o3)cc(=O)n(C3CC3)c12 [Example 42, 5-(7-((R)-3-((S)-1-aminoethyl)pyrrolidin-1-yl)-1-cyclopropyl-6-fluoro-8-methyl-2-oxo-1,2-dihydroquinolin-4-yl)-1,3,4-oxadiazol-2(3H)-one] | – | 0.25 (≈ 0.605 µM) | – | 0.5 (≈ 1.21 µM) | 32 (≈ 77.4 µM) | 8 (≈ 19.3 µM) | 8 (≈ 19.3 µM) | 0.5 (≈ 1.21 µM) | – | > 32 | 1.86 | 0.83
9 | Cc1c(N2CC[C@@H]([C@H](C)N)C2)c(F)cc2c(C(=O)NO)cc(=O)n(C3CC3)c12 [Example 43, 7-((R)-3-((S)-1-aminoethyl)pyrrolidin-1-yl)-1-cyclopropyl-6-fluoro-N-hydroxy-8-methyl-2-oxo-1,2-dihydroquinoline-4-carboxamide] | – | 4 (≈ 10.3 µM) | – | 16 (≈ 41.2 µM) | > 32 | > 32 | 32 (≈ 82.4 µM) | 8 (≈ 20.6 µM) | – | > 32 | 3.35 | 0.56
10 | Cc1c(N2CC[C@@H]([C@H](C)N)C2)c(F)cc2c(CN)cc(=O)n(C3CC3)c12 [Example 45, 7-((R)-3-((S)-1-aminoethyl)pyrrolidin-1-yl)-4-(aminomethyl)-1-cyclopropyl-6-fluoro-8-methylquinolin-2(1H)-one] | – | 0.06 (≈ 0.167 µM) | – | 0.5 (≈ 1.39 µM) | 2 (≈ 5.58 µM) | 0.5 (≈ 1.39 µM) | 1 (≈ 2.79 µM) | 0.25 (≈ 0.697 µM) | – | 2 (≈ 5.58 µM) | 0.24 | < 0.1
11 | Cc1c(N2CC[C@@H]([C@H](C)N)C2)ccc2c(OCC3CCOCC3)cc(=O)n(C3CC3)c12 [Example 73, 7-((R)-3-((S)-1-aminoethyl)pyrrolidin-1-yl)-1-cyclopropyl-8-methyl-4-((tetrahydro-2H-pyran-4-yl)methoxy)quinolin-2(1H)-one TFA salt] | – | 2 | – | 4 | > 32 | > 32 | 32 | 1 | – | > 32 | 4.97 | 3.01
12 | Cc1c(N2CC[C@@H]([C@H](C)N)C2)ccc2c(OCCN(C)C)cc(=O)n(C3CC3)c12 [Example 74, 7-((R)-3-((S)-1-aminoethyl)pyrrolidin-1-yl)-1-cyclopropyl-4-(2-(dimethylamino)ethoxy)-8-methylquinolin-2(1H)-one TFA salt] | – | 0.25 | – | 2 | 16 | 8 | 8 | 1 | – | 32 | 0.24 | 0.31
13 | Cc1c(N2CC[C@@H]([C@H](C)N)C2)ccc2ccc(=O)n(C3CC3)c12 [Example 76, 7-((R)-3-((S)-1-aminoethyl)pyrrolidin-1-yl)-1-cyclopropyl-8-methylquinolin-2(1H)-one trifluoroacetic acid salt] | – | 0.125 | – | 0.5 | 16 | 8 | 4 | 0.25 | – | 32 | 38.5 | 6.8
14 | Cc1c(N2CC[C@@H]([C@H](C)N)C2)ccc2cc(O)c(=O)n(C3CC3)c12 [Example 79, 7-((R)-3-((S)-1-aminoethyl)pyrrolidin-1-yl)-1-cyclopropyl-3-hydroxy-8-methylquinolin-2(1H)-one TFA salt] | – | 1 | – | 8 | > 32 | > 32 | 8 | 2 | – | > 32 | 1.84 | 2.44
